The record followed here is US5466716A, “Liposomal trimethylsphingosine” (The Biomembrane Institute, priority 1994, dated 1995).

Entries after “also recorded” stand apart in the source; their conditions may differ.

One series concerns HUVEC's. The series can be described thus: morphologic damage to endothelial cells (HUVEC's). Format: cell-based, human. To be noted: staurosporine 2 μM, calphostin C 5 μM. The method, then: A characteristic of neutrophils is the ability to adhere to activiated EC's and to migrate through the EC monolayer into the vascular or extravascular matrix. The effect of TMS on neutrophil interactions with EC's and their subsequent trans-endothelial migration thereof can be monitored in vitro using human umbilical endothelial cells (HUVEC's) (Luscinskas et al., J. Imm., 146, 1617, 1991). Neutrophils are added to a HUVEC monolayer and neutrophil-HUVEC interactions are assessed microscopically following fixation, embedding and staining of monolayer sections.
HUVEC's and culture media were purchased from Cell Systems (Kirkland, Wash.). The cells were maintained and cultured as described in Luscinskas et al., supra, with some modifications. Briefly, HUVEC's were maintained in 10 ml tissue culture flasks on a collagen type I bed obtained from rat tail (Upstate Biotechnology Inc, Lake Placid, N.Y.) with CS-complete medium, CS-growth factor and CS-AF-1 (Cell Systems). Cells became confluent within 2 to 4 days when incubated in 5% CO2 at 37° C.
The HUVEC monolayer in 24-well tissue culture plates were washed with M199 without FCS, then incubated with 1 ml/well of IL-1β (Boehringer Mannheim Biochemical Products, Indianapolis, Ind.) dissolved in M199 with 1% heat-inactivated FCS (HIFCS) at 10 U/ml. The plates were incubated at 37° C., 5% CO2 for 4 hr then washed gently with 1 ml of M199. […]

A further series has as its system BL6 melanoma cells. The series can be described thus: melanoma BL6 cell proliferation (thymidine incorporation). Format: cell-based. The conditions noted are these: BL6, FIG. 5A. From the text:
(§1) FIGS. 5A and 5B depict the effect of N,N,N-trimethylsphingosine (open circles), N,N-dimethylsphingosine (solid circles) and sphingosine (open squares) on two melanoma cell lines, BL6, a highly malignant cell line (in FIG. 5A) and F1, a cell line of low malignancy, (in FIG. 5B). Cell proliferation was evidenced by tritiated thymidine incorporation into DNA.
(§2) An in vitro assay relying on tritiated thymidine incorporation can be used to ascertain the effect of various compounds on cell proliferation. Briefly, tumor cells are seeded in flat bottom 96 well plates (Corning, N.Y.) at a concentration of 2×10^4 cells per well. The cells are cultured for 2 days in DMEM containing various concentrations of sphingoid, which is added as a PBS solution. The medium then is supplemented with tritiated thymidine at a concentration of 0.5 μCi per well. Following a six hour incubation the cells are collected using the PHD Cell Harvester (Cambridge Technology, Cambridge, Mass.) and amounts of incorporated radioactivity are determined after adding a suitable cell lysing agent and scintillation cocktail, such as ScintiVerse BD (Fisher Scientific, Fairlawn, Calif.) which performs both functions.
(§3) Certain cancer cells show a higher metastatic potential and invasive capability than others. For example the BL6 and F10 melanoma cell lines are highly metastatic and invasive. […]
In general terms: Incorporation of labelled thymidine or its analogues reports DNA synthesis.

The next series concerns F1 melanoma cells. The series can be described thus: melanoma F1 cell proliferation (thymidine incorporation). The conditions noted are these: F1, FIG. 5B. Format: cell-based.
Excerpt: as §1, §2, §3

The next series deals with 40 kD platelet protein. The series is described as follows: thrombin-induced phosphorylation of 40 kD platelet protein. Format: cell-based, human. The conditions noted are these: thrombin stimulation, FIG. 9. The method, then: FIG. 9 depicts the inhibition of γ-thrombin-induced phosphorylation of 40 kD protein of human platelets by sphingosine and TMS. Human platelets (3×10^5 /μl) were prelabeled with ^32 p-phosphoric acid (0.2 mCi/ml) in Tyrode's buffer containing 22 mM trisodium citrate, 1 mg/ml glucose and 3.5 mg/ml bovine serum albumin (pH 6.5) for 75 minutes at 37° C. After centrifugation (600× g, 10 minutes), the platelets were resuspended in Tyrode's buffer (pH 7.2), aliquoted in plastic tubes and pre-incubated at 37° C. for 5 minutes with various concentrations of sphingosine and its derivatives (added as 50% ethanol solutions with a final ethanol concentration of 0.5%). Platelets then were stimulated with thrombin […]. The reactions were stopped after 30 seconds by the addition of 5× sample buffer, the samples were boiled and loaded onto 10% SDS-polyacrylamide gels. The proteins were separated electrophotectically. Lane 1-control without stimulation by thrombin; Lane 2-stimulation by 1 μU/ml of γ-thrombin; Lane 3-stimulated by thrombin but added with 1 μM TMS; Lane 4-stimulated by thrombin but added with 10 μM TMS; Lane 5-stimulated by thrombin but added with 20 μM TMS; Lane 6-stimulated by thrombin but added with 30 μM TMS; Lane 7-stimulated by thrombin but added with 20 μM sphingosine; Lane 8-stimulated by thrombin but included addition of 20 μM N,N-dimethylsphingosine.

Turning to Calphostin C, the “morphologic damage to EC's” value in the series on HUVEC's is reported as “striking morphologic damage to EC's”.
For `CCCCCCCCCCCCC/C=C/[C@@H](O)[C@H](CO)[N+](C)(C)C` [TMS, N,N,N-trimethylsphingosine], the “inhibition of cell growth” value was “more effective than DMS and sphingosine; also recorded: BL6 cells were more sensitive to TMS treatment” in the series with BL6 melanoma cells; “more effective than DMS and sphingosine” with F1 melanoma cells. Besides, in the series on 40 kD platelet protein, the “inhibition of phosphorylation of the 40 kD platelet protein” value is recorded as “inhibits phosphorylation of the 40 kD platelet protein”.
